Results published in patent US20210002232A1, “HETEROCYCLIC COMPOUNDS AS FUNGICIDES” (PI INDUSTRIES LTD., priority 2018, published 2021).

Key:
Pyricularia oryzae = test: microbe, parasite or virus in culture; assay type: cell-based; details: 168 h, read-out: control
Phakopsora pachyrhizi = Phakopsora pachyrhizi test in soybean, preventive spray in greenhouse; assay type: in vivo; details: preventive spray on soybean plants, inoculated one day after treatment, compared to the untreated check, read-out: control (efficacy from disease severity rating)
Alternaria solani = Alternaria solani (early blight of tomato/potato) mycelial radial growth on Potato Dextrose Agar; details: 168 h, read-out: control
Protocol: Compounds were dissolved in 0.3% DMSO & then added to Potato Dextrose Agar medium just prior to dispensing it into Petri dishes. 5 ml medium with compound in the desired concentration was dispensed into 60 mm sterile petri-plates. After solidification each plate was seeded with 5 mm size mycelial disc taken form periphery of actively growing virulent culture plate. Plates were incubated in growth chambers at 25° C. temperature and 60% relative humidity for seven days and radial growth was measured.

Corynespora cassiicola = Corynespora cassiicola (leaf spot of tomato) mycelial radial growth on Potato Dextrose Agar; assay type: cell-based; details: 300 ppm; radial growth after seven days, 25° C., 70% relative humidity; compared to the untreated check

| Compound | inhibition of growth at 300 ppm (Pyricularia oryzae) | pest or weed control at 500 ppm (Phakopsora pachyrhizi) | inhibition of growth at 300 ppm (Alternaria solani) | control (Corynespora cassiicola) |
| --- | --- | --- | --- | --- |
| CN(C(=O)c1ccc(-c2coc(C(F)(F)F)n2)cc1)c1ccccc1 [Compound 82, N-methyl-N-phenyl-4-(2-(trifluoromethyl)oxazol-4-yl)benzamide] | > 70% | > 90% | > 70% | – |
| CS(=O)(=NC(=O)c1ccc(-c2cc(C(F)(F)F)on2)cc1)c1ccc(C(F)(F)F)cc1 (stereo not drawn) [Compound 59, N-(methyl(oxo)(4-(trifluoromethyl)phenyl)-λ^6-sulfaneylidene)-4-(5-(trifluoromethyl)isoxazol-3-yl)benzamide] | – | – | – | more than 70% |
| CN(CCOc1ccccc1)C(=O)c1ccc(-c2coc(C(F)(F)F)n2)cc1 [Compound 67, N-methyl-N-(2-phenoxyethyl)-4-(2-(trifluoromethyl)oxazol-4-yl)benzamide] | > 70% | > 90% | > 70% | – |
| COc1ccc(S(C)(=O)=Nc2ccc(C3=NOC(C(F)(F)F)N3)cc2)cc1 (stereo not drawn) [Compound 16, (4-methoxyphenyl)(methyl)((4-(5-(trifluoromethyl)-4,5-dihydro-1,2,4-oxadiazol-3-yl)phenyl)imino)-λ^6-sulfanone] | > 70% | – | > 70% | – |
| Cc1ccc(S(C)(=O)=NCc2ccc(C3=NOC(C(F)(F)F)N3)cc2)cc1 (stereo not drawn) [Compound 30, methyl(p-tolyl)((4-(5-(trifluoromethyl)-4,5-dihydro-1,2,4-oxadiazol-3-yl)benzyl)imino)-λ^6-sulfanone] | > 70% | > 90% | > 70% | – |
| CS(=O)(=Nc1ccc(C2=NOC(C(F)(F)F)N2)cc1)c1ccccn1 (stereo not drawn) [Compound 24, Methyl(pyridin-2-yl)((4-(5-(trifluoromethyl)-4,5-dihydro-1,2,4-oxadiazol-3-yl)phenyl)imino)-λ^6-sulfanone] | > 70% | > 90% | > 70% | – |
